Test results as given in PMC9250534, “Synthesis and direct assay of large macrocycle diversities by combinatorial late-stage modification at picomole scale” (Nature Communications, 2022).

Each molecule was assayed against MDM2 (Homo sapiens, UniProt Q00987) (assay: MDM2 binding screen of Libraries 3 and 4: displacement of fluorescent probe F-M8 at 750 nM macrocycle). Details: Panel b, Library 3: 63 scaffolds combinatorially acylated with 15 carboxylic acids at 30 picomole scale; displacement of fluorescent peptide probe; macrocycle 750 nM.
How it was run: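 Cyclic peptide scaffolds were acylated in DMSO with carboxylic acids (20 equiv.), HBTU and DABCO for 6 h at room temperature. Reactions were quenched overnight in 100 mM Tris-Cl pH 7.4, 0.01% Tween20. The fluorescein conjugate was also competed with nutlin-3a.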

Chain of MDM2 (Q00987 whole entry): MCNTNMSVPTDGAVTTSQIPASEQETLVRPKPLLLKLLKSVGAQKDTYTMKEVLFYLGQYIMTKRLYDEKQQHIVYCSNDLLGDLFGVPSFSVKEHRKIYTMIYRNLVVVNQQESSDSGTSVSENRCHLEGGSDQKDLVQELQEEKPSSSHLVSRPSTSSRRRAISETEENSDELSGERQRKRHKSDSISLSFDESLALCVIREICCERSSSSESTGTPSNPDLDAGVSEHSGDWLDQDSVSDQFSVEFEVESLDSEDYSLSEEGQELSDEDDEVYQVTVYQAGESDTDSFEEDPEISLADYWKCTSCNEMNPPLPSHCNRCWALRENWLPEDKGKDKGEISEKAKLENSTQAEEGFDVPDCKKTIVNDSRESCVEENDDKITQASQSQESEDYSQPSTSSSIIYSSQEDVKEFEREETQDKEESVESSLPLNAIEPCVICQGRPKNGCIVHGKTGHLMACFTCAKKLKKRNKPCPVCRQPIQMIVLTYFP

| fraction of fluorescent probe displaced | Compound |
| --- | --- |
| 0.008 | O=C(NC[C@H]1NC(=O)[C@@H]2CN(CCO2)C(=O)CCSSCCNC(=O)[C@H](Cc2c[nH]c3ccccc23)NC1=O)C1COc2ccccc2O1 (stereo partly drawn) [X-Cop-D-Dap-Trp + Acid 115] |
| 0.008 | O=C(NC[C@@H]1NC(=O)[C@@H]2CN(CCO2)C(=O)CCSSCCNC(=O)[C@H](Cc2cccc3ccccc23)NC1=O)c1ccc(Cl)s1 [X-Cop-Dap-1-NaI + Acid 14] |
| -0.012 | O=C(NCC1NC(=O)C2CN(CCO2)C(=O)CCSSCCNC(=O)C(Cc2cccc3ccccc23)NC1=O)c1ccc(Cl)cc1 (stereo not drawn) [X-Cop-Dap-1-NaI + Acid 25] |
| 0.021 | O=C(/C=C/c1ccc2ccccc2c1)NC[C@@H]1NC(=O)[C@@H]2CN(CCO2)C(=O)CCSSCCNC(=O)[C@H](Cc2cccc3ccccc23)NC1=O [X-Cop-Dap-1-NaI + Acid 112] |
| 0.021 | O=C(CCS(=O)(=O)c1ccccc1)NC[C@@H]1NC(=O)[C@@H]2CN(CCO2)C(=O)CCSSCCNC(=O)[C@H](Cc2cccc3ccccc23)NC1=O [X-Cop-Dap-1-NaI + Acid 114] |
| 0.041 | O=C(NC[C@@H]1NC(=O)[C@@H]2CN(CCO2)C(=O)CCSSCCNC(=O)[C@H](Cc2ccc3ccccc3c2)NC1=O)c1ccc(Cl)cc1 [X-Cop-Dap-2-Nal + Acid 25] |
| 0.035 | O=C(/C=C/c1ccc(OCc2ccccc2)cc1)NC[C@@H]1NC(=O)[C@@H]2CN(CCO2)C(=O)CCSSCCNC(=O)[C@H](Cc2ccc3ccccc3c2)NC1=O [X-Cop-Dap-2-Nal + Acid 110] |
| 0.008 | O=C(NCC1NC(=O)C2CN(CCO2)C(=O)CCSSCCNC(=O)C(Cc2ccc3ccccc3c2)NC1=O)c1cccc(Oc2ccccc2)c1 (stereo not drawn) [X-Cop-Dap-2-Nal + Acid 111] |
| -0.00533 | O=C(CCS(=O)(=O)c1ccccc1)NC[C@@H]1NC(=O)[C@@H]2CN(CCO2)C(=O)CCSSCCNC(=O)[C@H](Cc2ccc3ccccc3c2)NC1=O [X-Cop-Dap-2-Nal + Acid 114] |
| 0.128 | O=C(NC[C@@H]1NC(=O)[C@@H]2CN(CCO2)C(=O)CCSSCCNC(=O)[C@H](Cc2c[nH]c3cc(Cl)ccc23)NC1=O)c1ccc(Cl)s1 [X-Cop-Dap-Cl-Trp + Acid 14] |
| 0.088 | O=C(NCC1NC(=O)C2CN(CCO2)C(=O)CCSSCCNC(=O)C(Cc2c[nH]c3cc(Cl)ccc23)NC1=O)c1ccc(Cl)cc1 (stereo not drawn) [X-Cop-Dap-Cl-Trp + Acid 25] |
| 0.284 | O=C(C=Cc1ccncc1)NCC1NC(=O)C2CN(CCO2)C(=O)CCSSCCNC(=O)C(Cc2c[nH]c3cc(Cl)ccc23)NC1=O (stereo not drawn) [X-Cop-Dap-Cl-Trp + Acid 106] |
| 0.102 | O=C(NC[C@@H]1NC(=O)[C@@H]2CN(CCO2)C(=O)CCSSCCNC(=O)[C@H](Cc2c[nH]c3cc(Cl)ccc23)NC1=O)c1ccc2ccccc2c1 [X-Cop-Dap-Cl-Trp + Acid 107] |
| 0.075 | O=C(C=Cc1ccc(Cl)cc1)NCC1NC(=O)C2CN(CCO2)C(=O)CCSSCCNC(=O)C(Cc2c[nH]c3cc(Cl)ccc23)NC1=O (stereo not drawn) [X-Cop-Dap-Cl-Trp + Acid 108] |
| 0.021 | O=C(/C=C/c1ccc(OCc2ccccc2)cc1)NC[C@@H]1NC(=O)[C@@H]2CN(CCO2)C(=O)CCSSCCNC(=O)[C@H](Cc2c[nH]c3cc(Cl)ccc23)NC1=O [X-Cop-Dap-Cl-Trp + Acid 110] |
| -0.039 | O=C(CCS(=O)(=O)c1ccccc1)NC[C@@H]1NC(=O)[C@@H]2CN(CCO2)C(=O)CCSSCCNC(=O)[C@H](Cc2c[nH]c3cc(Cl)ccc23)NC1=O [X-Cop-Dap-Cl-Trp + Acid 114] |
| -0.012 | O=C(NC[C@@H]1NC(=O)[C@@H]2CN(CCO2)C(=O)CCSSCCNC(=O)[C@@H](Cc2c[nH]c3ccccc23)NC1=O)c1ccc(Cl)cc1 [X-Cop-Dap-D-Trp + Acid 25] |

| fraction of fluorescent probe displaced | Compound |
| --- | --- |
| 0.028 | O=C(/C=C/c1ccc2ccccc2c1)NC[C@@H]1NC(=O)[C@@H]2CN(CCO2)C(=O)CCSSCCNC(=O)[C@@H](Cc2c[nH]c3ccccc23)NC1=O [X-Cop-Dap-D-Trp + Acid 112] |
| 0.021 | O=C(CCS(=O)(=O)c1ccccc1)NC[C@@H]1NC(=O)[C@@H]2CN(CCO2)C(=O)CCSSCCNC(=O)[C@@H](Cc2c[nH]c3ccccc23)NC1=O [X-Cop-Dap-D-Trp + Acid 114] |
| 0.008 | O=C(NC[C@@H]1NC(=O)[C@@H]2CN(CCO2)C(=O)CCSSCCNC(=O)[C@@H](Cc2c[nH]c3ccccc23)NC1=O)C1COc2ccccc2O1 (stereo partly drawn) [X-Cop-Dap-D-Trp + Acid 115] |
| 0.00133 | Cn1cc(C[C@@H]2NC(=O)[C@H](CNC(=O)c3ccc(Cl)s3)NC(=O)[C@@H]3CN(CCO3)C(=O)CCSSCCNC2=O)c2ccccc21 [X-Cop-Dap-Me-Trp + Acid 14] |
| 0.015 | Cn1cc(C[C@@H]2NC(=O)[C@H](CNC(=O)c3ccc(Cl)cc3)NC(=O)[C@@H]3CN(CCO3)C(=O)CCSSCCNC2=O)c2ccccc21 [X-Cop-Dap-Me-Trp + Acid 25] |
| 0.015 | Cn1cc(C[C@@H]2NC(=O)[C@H](CNC(=O)C3COc4ccccc4O3)NC(=O)[C@@H]3CN(CCO3)C(=O)CCSSCCNC2=O)c2ccccc21 (stereo partly drawn) [X-Cop-Dap-Me-Trp + Acid 115] |
| 0.028 | CN1C(=O)[C@H](CNC(=O)c2ccc(Cl)s2)NC(=O)[C@@H]2CN(CCO2)C(=O)CCSSCCNC(=O)[C@@H]1Cc1c[nH]c2ccccc12 [X-Cop-Dap-NMe-Trp + Acid 14] |
| -0.00533 | CN1C(=O)[C@H](CNC(=O)c2ccc(Cl)cc2)NC(=O)[C@@H]2CN(CCO2)C(=O)CCSSCCNC(=O)[C@@H]1Cc1c[nH]c2ccccc12 [X-Cop-Dap-NMe-Trp + Acid 25] |
| 0.018 | CN1C(=O)C(CNC(=O)C2CC2c2ccccc2)NC(=O)C2CN(CCO2)C(=O)CCSSCCNC(=O)C1Cc1c[nH]c2ccccc12 (stereo not drawn) [X-Cop-Dap-NMe-Trp + Acid 105] |
| 0.011 | CN1C(=O)C(CNC(=O)c2ccc3ccccc3c2)NC(=O)C2CN(CCO2)C(=O)CCSSCCNC(=O)C1Cc1c[nH]c2ccccc12 (stereo not drawn) [X-Cop-Dap-NMe-Trp + Acid 107] |
| 0.041 | O=C(NCC1NC(=O)C2CN(CCO2)C(=O)CCSSCCNC(=O)C(Cc2c[nH]c3ccccc23)NC1=O)c1ccc(Cl)cc1 (stereo not drawn) [X-Cop-Dap-Trp + Acid 25] |
| 0.108 | O=C(NC[C@@H]1NC(=O)[C@@H]2CN(CCO2)C(=O)CCSSCCNC(=O)[C@H](Cc2c[nH]c3ccccc23)NC1=O)c1ccc2ccccc2c1 [X-Cop-Dap-Trp + Acid 107] |
| -0.012 | O=C(/C=C/c1ccc(OCc2ccccc2)cc1)NC[C@@H]1NC(=O)[C@@H]2CN(CCO2)C(=O)CCSSCCNC(=O)[C@H](Cc2c[nH]c3ccccc23)NC1=O [X-Cop-Dap-Trp + Acid 110] |
| 0.048 | O=C(NC[C@@H]1NC(=O)[C@@H]2CN(CCO2)C(=O)CCSSCCNC(=O)[C@H](Cc2c[nH]c3ccccc23)NC1=O)c1cccc(Oc2ccccc2)c1 [X-Cop-Dap-Trp + Acid 111] |
| 0.168 | O=C(/C=C/c1ccc2ccccc2c1)NC[C@@H]1NC(=O)[C@@H]2CN(CCO2)C(=O)CCSSCCNC(=O)[C@H](Cc2c[nH]c3ccccc23)NC1=O [X-Cop-Dap-Trp + Acid 112] |
| -0.00533 | CC(Oc1cccc(Cl)c1)C(=O)NC[C@@H]1NC(=O)[C@@H]2CN(CCO2)C(=O)CCSSCCNC(=O)[C@H](Cc2c[nH]c3ccccc23)NC1=O (stereo partly drawn) [X-Cop-Dap-Trp + Acid 113] |
| -0.00533 | O=C(NC[C@@H]1NC(=O)[C@@H]2CN(CCO2)C(=O)CCSSCCNC(=O)[C@H](Cc2c[nH]c3ccccc23)NC1=O)C1COc2ccccc2O1 (stereo partly drawn) [X-Cop-Dap-Trp + Acid 115] |

Same assay, conditions: Panel c, Library 4: best nine scaffolds and 15 additional carboxylic acids; displacement of fluorescent probe

| fraction of fluorescent probe displaced | Compound |
| --- | --- |
| 0.175 | CCOc1ccc(/C=C/C(=O)NC[C@@H]2NC(=O)[C@@H]3CN(CCO3)C(=O)CCSSCCNC(=O)[C@H](Cc3c[nH]c4cc(Cl)ccc34)NC2=O)cc1 [X-Cop-Dap-Cl-Trp + Acid 117] |
| 0.126 | O=C(/C=C/c1ccc(Cl)c(Cl)c1)NC[C@@H]1NC(=O)[C@@H]2CN(CCO2)C(=O)CCSSCCNC(=O)[C@H](Cc2c[nH]c3cc(Cl)ccc23)NC1=O [X-Cop-Dap-Cl-Trp + Acid 119] |
| 0.012 | C/C(=C\c1ccccc1)C(=O)NC[C@@H]1NC(=O)[C@@H]2CN(CCO2)C(=O)CCSSCCNC(=O)[C@H](Cc2c[nH]c3cc(Cl)ccc23)NC1=O [X-Cop-Dap-Cl-Trp + Acid 123] |
| 0.085 | CC(C)c1ccc(/C=C/C(=O)NC[C@@H]2NC(=O)[C@@H]3CN(CCO3)C(=O)CCSSCCNC(=O)[C@H](Cc3c[nH]c4cc(Cl)ccc34)NC2=O)cc1 [X-Cop-Dap-Cl-Trp + Acid 127] |
| 0.052 | CCOc1ccc(C=CC(=O)NCC2NC(=O)C3CN(CCO3)C(=O)CCSSCCNC(=O)C(Cc3cn(C)c4ccccc34)NC2=O)cc1 (stereo not drawn) [X-Cop-Dap-Me-Trp + Acid 117] |
| 0.028 | CCCOc1ccc(C=CC(=O)NCC2NC(=O)C3CN(CCO3)C(=O)CCSSCCNC(=O)C(Cc3cn(C)c4ccccc34)NC2=O)cc1 (stereo not drawn) [X-Cop-Dap-Me-Trp + Acid 118] |
| -0.037 | CC(=Cc1ccccc1)C(=O)NCC1NC(=O)C2CN(CCO2)C(=O)CCSSCCNC(=O)C(Cc2cn(C)c3ccccc23)NC1=O (stereo not drawn) [X-Cop-Dap-Me-Trp + Acid 123] |
| 0.199 | CCOc1ccc(C=CC(=O)NCC2NC(=O)C3CN(CCO3)C(=O)CCSSCCNC(=O)C(Cc3c[nH]c4ccccc34)NC2=O)cc1 (stereo not drawn) [X-Cop-Dap-Trp + Acid 117] |
| 0.158 | CCCOc1ccc(C=CC(=O)NCC2NC(=O)C3CN(CCO3)C(=O)CCSSCCNC(=O)C(Cc3c[nH]c4ccccc34)NC2=O)cc1 (stereo not drawn) [X-Cop-Dap-Trp + Acid 118] |
